Data: BigSolDB 2.1

COc1ccc2nc(SCc3ncc(C)c(OC)c3C)[nH]c2c1
solubility (mole fraction)
Conditions	in ethanol	in ethyl acetate
277.65 K	0.0029	0.0117
282.65 K	0.00371	0.0168
288.15 K	0.00483	0.0244
293.15 K	0.00614	0.0337
298.05 K	0.00773	0.0455
302.15 K	0.00935	0.0577
307.65 K	0.012	0.0781
313.15 K	0.0155	0.104
317.65 K	0.0189	0.129
322.15 K	0.0231	0.16
327.65 K	0.0293	0.203
333.15 K	0.0372	0.256
